Values of other authors as cited in patent US20110177038A1, “Inhibition of Tumor Growth via Peroxiredoxin 3” (THE JOHNS HOPKINS UNIVERSITY, priority 2002, published 2011).

System: MCF7/ADR cells
Conditions: free radical scavenger

CC(=O)C(=O)[O-].[Na+] [sodium pyruvate]
Inhibition of apoptosis after glucose withdrawal: sufficient to inhibit apoptosis
